Test results from ChEMBL document CHEMBL5137017, “Identification of NVP-CLR457 as an Orally Bioavailable Non-CNS-Penetrant pan-Class IA Phosphoinositol-3-Kinase Inhibitor” (J Med Chem, 2022).
Converted amounts (≈) assume the structure as drawn. The source made the active and inactive calls. No cut-off for these calls is given here.

What was measured:
[1] = Drug concentration in OF1 mouse blood at 1 mg/kg, iv measured at 1 hr post dose by LC-MS/MS analysis; type: ADME, organism-based; details: whole blood, read-out: Ct
[2] = Drug concentration in OF1 mouse brain at 1 mg/kg, iv measured at 1 hr post dose by LC-MS/MS analysis; type: ADME, organism-based; details: in vivo
[3] = Inhibition of wild type PI3K in human Hs-578T cells assessed as reduction in phosphorylation of AKT at Ser473 residue by Western blot analysis; type: cell-based
[4] = Inhibition of PI3K PTEN mutant in human MDA-MB-436 cells assessed as reduction in phosphorylation of AKT at Ser473 residue by Western blot analysis; type: cell-based
[5] = Inhibition of PI3K PTEN mutant in human MDA-MB-468 cells assessed as reduction in phosphorylation of AKT at Ser473 residue by Western blot analysis; type: cell-based
[6] = Inhibition of PI3K PTEN mutant in human HCC1937 cells assessed as reduction in phosphorylation of AKT at Ser473 residue by Western blot analysis; type: cell-based
[7] = Plasma protein binding in beagle dog plasma at 0.3 mg/kg,po or 0.1 mg/kg,iv measured after 4 hrs by rapid equilibrium dialysis method; type: ADME, organism-based, Canis lupus familiaris; details: read-out: PPB (converted)
[8] = Cmax in OF1 mouse at 10 mg/kg,po or 3 mg/kg,iv measured upto 24 hrs by LC-MS/MS analysis; type: ADME, organism-based; set-up: time < 24 hrs, dose 10 mg/kg, route po; details: in vivo
[9] = Cmax in beagle dog at 0.3 mg/kg,po or 0.1 mg/kg,iv measured upto 24 hrs by LC-MS/MS analysis; type: ADME, organism-based, Canis lupus familiaris; set-up: dose 0.3 mg/kg, time < 24 hrs, route po; details: in vivo
[10] = Dose normalized AUC in Sprague-Dawley rat at 100 mg/kg, po measured upto 24 hrs by LC-MS/MS analysis; type: ADME, organism-based; details: in vivo
[11] = Dose normalized AUC in beagle dog at 3 mg/kg, po measured upto 24 hrs by LC-MS/MS analysis; type: ADME, organism-based, Canis lupus familiaris; details: in vivo
[12] = Dose normalized Cmax in Sprague-Dawley rat at 3 mg/kg, po measured upto 24 hrs by LC-MS/MS analysis; type: ADME, organism-based; details: in vivo
[13] = Tmax in Sprague-Dawley rat at 30 mg/kg, po measured upto 24 hrs by LC-MS/MS analysis; type: ADME, organism-based; details: in vivo
[14] = 1-octanol, logP of the compound at pH 7.4; type: physicochemical
[15] = Aqueous solubility of compound in buffer at pH 7.4 by HPLC analysis; type: physicochemical
[16] = Solubility of compound in FaSSIF at pH 5.8 measured upto 120 mins by HPLC analysis; type: physicochemical
[17] = Half life in Beagle dog at 6 mg/kg, po measured upto 24 hrs using crystalline form of sample by LC-MS/MS analysis; type: ADME, organism-based, Canis lupus familiaris; details: in vivo
[18] = Efflux ratio of apparent permeability from […] in human Caco-2 cells at 10 uM incubated upto 120 mins by LC-MS/MS analysis; type: ADME, cell-based; details: caco-2, 2 h
Caco-2 = test: Nonspecific permeability coefficient in human Caco-2 cells at 0.25 to 30 uM measured after 120 mins by LC-MS/MS analysis; type: ADME, cell-based; details: caco-2, 2 h, dose 0.25-30 µM
Mus musculus = test: In vivo Inhibition of AKT phosphorylation at Ser473 residue in athymic nude mouse xenografted with rat Rat1-myr-p110alpha cells at 10 mg/kg, po qd measured after 1 to 4 hrs; type: functional, organism-based; details: time 1-4 hrs
Rat1 [19] = test: Antitumor activity at rat Rat1 cells expressing myr-p110alpha xenografted in athymic nude mouse assessed as T/C ratio at 20 mg/kg, po qd measured after 14 to 22 days; type: functional; details: time 14-22 day
[20] = Toxicity in athymic nude mouse xenografted with rat Rat1 cells expressing myr-p110delta assessed as drug tolerance at 20 mg/kg, po bid measured for 7 to 15 days; type: organism-based; details: in vivo, time 7-15 day
[21] = Clast in athymic nude mouse xenografted with rat Rat1 cells expressing myr-p110alpha at 3 mg/kg, po measured after 8 days by LC-MS/MS analysis; type: ADME, organism-based; details: in vivo, time 8 day, read-out: Clast
[22] = Clast in athymic nude mouse xenografted with rat Rat1 cells expressing myr-p110alpha at 10 mg/kg, po measured after 8 days by LC-MS/MS analysis; type: ADME, organism-based; details: in vivo, time 8 day, read-out: Clast
[23] = AUC(0 to Tlast) in athymic nude mouse xenografted with rat Rat1 cells expressing myr-p110alpha at 3 mg/kg, po measured after 8 days by LC-MS/MS analysis; type: ADME, organism-based; set-up: time 8 day, dose 3 mg/kg, route po; details: in vivo
[24] = AUC(0 to Tlast) in athymic nude mouse xenografted with rat Rat1 cells expressing myr-p110alpha at 20 mg/kg, po measured after 8 days by LC-MS/MS analysis; type: ADME, organism-based; set-up: dose 20 mg/kg, time 8 day, route po; details: in vivo
Rat1 [25] = test: Antitumor activity at rat Rat1 cells expressing myr-p110alpha xenografted in athymic nude mouse assessed as T/C ratio at 40 mg/kg, po bid measured after 15 to 24 days; type: functional; details: time 15-24 day

concentration at 1 h [1]: 630 nM
Ct [2]: 31 pmol/g
IC50 [3]: 27 nM
IC50 [4]: 179 nM
IC50 [5]: 263 nM
IC50 [6]: 251 nM
fraction unbound at 4 h [7]: 0.29
Cmax [8]: 422 nM
Cmax [9]: 1120 nM
AUC/dose [10]: 784 nM·h
AUC/dose [11]: 11213 nM·h
Cmax/dose [12]: 213 nM
Tmax [13]: 4 h
logD [14]: 2
solubility [15]: 26 µM (≈ 11.8 µg/mL)
solubility at 2 h [16]: 51 µM (≈ 23.2 µg/mL)
half-life [17]: 12.9 h
Ratio [18]: 2.2
Pm (Caco-2): 73 10^-5 cm/min
concentration at 192 h [21]: 3 nM
concentration at 192 h [22]: 140 nM
AUC(0-t) at 192 h [23]: 5.5 µM·h
AUC(0-t) at 192 h [24]: 26 µM·h
SMILES: C[C@H]1OC(=O)N(c2nc(-c3cnc(N)nc3C(F)(F)F)cc(N3CCOCC3)n2)[C@H]1CO
inhibition (Mus musculus): Active
T/C (Rat1 [19]): 0.04
Activity [20]: Toxic
T/C (Rat1 [25]): -0.86
